# Laboratory results from ChEMBL document CHEMBL3044899, “Effect of chloro and fluoro groups on the antimicrobial activity of 2,5-disubstituted 4-thiazolidinones: a comparative study” (2012).
# Activity calls are given as the source filed them. No cut-off for these calls is given here.
# What was measured:
# Bacillus subtilis [1] = assay: Antibacterial activity against Bacillus subtilis MTCC 121 at 300 ug/ml by cup plate method; format: functional; conditions: read-out: DIZ
# Bacillus subtilis [2] = assay: Antibacterial activity against Bacillus subtilis MTCC 121 at 100 ug/ml by cup plate method; format: functional; conditions: read-out: DIZ
# Escherichia coli [3] = assay: Antibacterial activity against Escherichia coli MTCC 739 by cup-plate method; format: functional, organism-based
# Staphylococcus aureus [4] = assay: Antibacterial activity against Staphylococcus aureus MTCC 96 at 100 ug/ml by cup-plate method; format: functional; conditions: read-out: DIZ
# Candida albicans = assay: Antifungal activity against Candida albicans MTCC 227 at 50 to 300 ug/ml by cup-plate method; format: functional, organism-based
# Escherichia coli [5] = assay: Antibacterial activity against Escherichia coli MTCC 739 at 100 ug/ml by cup-plate method; format: functional; conditions: read-out: DIZ
# Bacillus subtilis [6] = assay: Antibacterial activity against Bacillus subtilis MTCC 121 at 200 ug/ml by cup plate method; format: functional; conditions: read-out: DIZ
# Staphylococcus aureus [7] = assay: Antibacterial activity against Staphylococcus aureus MTCC 96 by cup-plate method; format: functional, organism-based
# Bacillus subtilis [8] = assay: Antibacterial activity against Bacillus subtilis MTCC 121 at 50 ug/ml by cup plate method; format: functional; conditions: read-out: DIZ
# Pseudomonas aeruginosa [9] = assay: Antibacterial activity against Pseudomonas aeruginosa MTCC 2453 at 100 ug/ml by cup-plate method; format: functional; conditions: read-out: DIZ
# Bacillus subtilis [10] = assay: Antibacterial activity against Bacillus subtilis MTCC 121 by cup plate method; format: functional, organism-based
# Pseudomonas aeruginosa [11] = assay: Antibacterial activity against Pseudomonas aeruginosa MTCC 2453 at 50 ug/ml by cup-plate method; format: functional; conditions: read-out: DIZ
# Staphylococcus aureus [12] = assay: Antibacterial activity against Staphylococcus aureus MTCC 96 at 300 ug/ml by cup-plate method; format: functional; conditions: read-out: DIZ
# Staphylococcus aureus [13] = assay: Antibacterial activity against Staphylococcus aureus MTCC 96 at 50 ug/ml by cup-plate method; format: functional; conditions: read-out: DIZ
# Staphylococcus aureus [14] = assay: Antibacterial activity against Staphylococcus aureus MTCC 96 at 200 ug/ml by cup-plate method; format: functional; conditions: read-out: DIZ
# Pseudomonas aeruginosa [15] = assay: Antibacterial activity against Pseudomonas aeruginosa MTCC 2453 at 200 ug/ml by cup-plate method; format: functional; conditions: read-out: DIZ
# Escherichia coli [16] = assay: Antibacterial activity against Escherichia coli MTCC 739 at 300 ug/ml by cup-plate method; format: functional; conditions: read-out: DIZ
# Pseudomonas aeruginosa [17] = assay: Antibacterial activity against Pseudomonas aeruginosa MTCC 2453 by cup-plate method; format: functional, organism-based
# Escherichia coli [18] = assay: Antibacterial activity against Escherichia coli MTCC 739 at 200 ug/ml by cup-plate method; format: functional; conditions: read-out: DIZ
# Pseudomonas aeruginosa [19] = assay: Antibacterial activity against Pseudomonas aeruginosa MTCC 2453 at 300 ug/ml by cup-plate method; format: functional; conditions: read-out: DIZ
# Escherichia coli [20] = assay: Antibacterial activity against Escherichia coli MTCC 739 at 50 ug/ml by cup-plate method; format: functional; conditions: read-out: DIZ
structure (smiles),measurement,setting,value
O=C1N/C(=N\c2cccc(Cl)c2)S/C1=C\c1cccc([N+](=O)[O-])c1,zone of inhibition at 300 µg/mL,Bacillus subtilis [1],10 mm
same,zone of inhibition at 100 µg/mL,Bacillus subtilis [2],9 mm
same,Activity,Escherichia coli [3],Dose-dependent effect
same,zone of inhibition at 100 µg/mL,Staphylococcus aureus [4],9 mm
same,Activity,Candida albicans,inactive
same,zone of inhibition at 100 µg/mL,Escherichia coli [5],7 mm
same,zone of inhibition at 200 µg/mL,Bacillus subtilis [6],9 mm
same,Activity,Staphylococcus aureus [7],Dose-dependent effect
same,zone of inhibition at 50 µg/mL,Bacillus subtilis [8],8 mm
same,zone of inhibition at 100 µg/mL,Pseudomonas aeruginosa [9],8 mm
same,Activity,Bacillus subtilis [10],Dose-dependent effect
same,zone of inhibition at 50 µg/mL,Pseudomonas aeruginosa [11],8 mm
same,zone of inhibition at 300 µg/mL,Staphylococcus aureus [12],10 mm
same,zone of inhibition at 50 µg/mL,Staphylococcus aureus [13],8 mm
same,zone of inhibition at 200 µg/mL,Staphylococcus aureus [14],9 mm
same,zone of inhibition at 200 µg/mL,Pseudomonas aeruginosa [15],9 mm
same,zone of inhibition at 300 µg/mL,Escherichia coli [16],8 mm
same,Activity,Pseudomonas aeruginosa [17],Dose-dependent effect
same,zone of inhibition at 200 µg/mL,Escherichia coli [18],8 mm
same,zone of inhibition at 300 µg/mL,Pseudomonas aeruginosa [19],9 mm
same,zone of inhibition at 50 µg/mL,Escherichia coli [20],7 mm
O=C1N/C(=N\c2cccc(Cl)c2)S/C1=C\c1ccccc1,zone of inhibition at 300 µg/mL,Bacillus subtilis [1],7 mm
same,zone of inhibition at 100 µg/mL,Bacillus subtilis [2],7 mm
same,Activity,Escherichia coli [3],Dose-dependent effect
same,zone of inhibition at 100 µg/mL,Staphylococcus aureus [4],7 mm
same,Activity,Candida albicans,inactive
same,zone of inhibition at 100 µg/mL,Escherichia coli [5],7 mm
same,zone of inhibition at 200 µg/mL,Bacillus subtilis [6],7 mm
same,Activity,Staphylococcus aureus [7],Dose-dependent effect
same,zone of inhibition at 50 µg/mL,Bacillus subtilis [8],6 mm
same,zone of inhibition at 100 µg/mL,Pseudomonas aeruginosa [9],7 mm
same,Activity,Bacillus subtilis [10],Dose-dependent effect
same,zone of inhibition at 50 µg/mL,Pseudomonas aeruginosa [11],6 mm
same,zone of inhibition at 300 µg/mL,Staphylococcus aureus [12],9 mm
same,zone of inhibition at 50 µg/mL,Staphylococcus aureus [13],6 mm
same,zone of inhibition at 200 µg/mL,Staphylococcus aureus [14],8 mm
same,zone of inhibition at 200 µg/mL,Pseudomonas aeruginosa [15],8 mm
same,zone of inhibition at 300 µg/mL,Escherichia coli [16],8 mm
same,Activity,Pseudomonas aeruginosa [17],Dose-dependent effect
same,zone of inhibition at 200 µg/mL,Escherichia coli [18],7 mm
same,zone of inhibition at 300 µg/mL,Pseudomonas aeruginosa [19],9 mm
same,zone of inhibition at 50 µg/mL,Escherichia coli [20],7 mm
O=C1N/C(=N\c2ccc(Cl)cc2)S/C1=C\c1ccc(O)cc1,zone of inhibition at 300 µg/mL,Bacillus subtilis [1],8 mm
same,zone of inhibition at 100 µg/mL,Bacillus subtilis [2],7 mm
same,Activity,Escherichia coli [3],Dose-dependent effect
same,zone of inhibition at 100 µg/mL,Staphylococcus aureus [4],7 mm
same,Activity,Candida albicans,inactive
same,zone of inhibition at 100 µg/mL,Escherichia coli [5],7 mm
same,zone of inhibition at 200 µg/mL,Bacillus subtilis [6],7 mm
same,Activity,Staphylococcus aureus [7],Dose-dependent effect
same,zone of inhibition at 50 µg/mL,Bacillus subtilis [8],6 mm
same,zone of inhibition at 100 µg/mL,Pseudomonas aeruginosa [9],8 mm
same,Activity,Bacillus subtilis [10],Dose-dependent effect
same,zone of inhibition at 50 µg/mL,Pseudomonas aeruginosa [11],7 mm
same,zone of inhibition at 300 µg/mL,Staphylococcus aureus [12],8 mm
same,zone of inhibition at 50 µg/mL,Staphylococcus aureus [13],6 mm
same,zone of inhibition at 200 µg/mL,Staphylococcus aureus [14],7 mm
same,zone of inhibition at 200 µg/mL,Pseudomonas aeruginosa [15],8 mm
same,zone of inhibition at 300 µg/mL,Escherichia coli [16],8 mm
same,Activity,Pseudomonas aeruginosa [17],Dose-dependent effect
same,zone of inhibition at 200 µg/mL,Escherichia coli [18],8 mm
same,zone of inhibition at 300 µg/mL,Pseudomonas aeruginosa [19],9 mm
same,zone of inhibition at 50 µg/mL,Escherichia coli [20],7 mm
O=C1N/C(=N\c2ccc(F)c(Cl)c2)S/C1=C\c1ccccc1[N+](=O)[O-],zone of inhibition at 300 µg/mL,Bacillus subtilis [1],13 mm
same,zone of inhibition at 100 µg/mL,Bacillus subtilis [2],12 mm
same,Activity,Escherichia coli [3],Dose-dependent effect
same,zone of inhibition at 100 µg/mL,Staphylococcus aureus [4],12 mm
same,Activity,Candida albicans,inactive
same,zone of inhibition at 100 µg/mL,Escherichia coli [5],9 mm
same,zone of inhibition at 200 µg/mL,Bacillus subtilis [6],13 mm
same,Activity,Staphylococcus aureus [7],Dose-dependent effect
same,zone of inhibition at 50 µg/mL,Bacillus subtilis [8],10 mm
same,zone of inhibition at 100 µg/mL,Pseudomonas aeruginosa [9],9 mm
same,Activity,Bacillus subtilis [10],Dose-dependent effect
same,zone of inhibition at 50 µg/mL,Pseudomonas aeruginosa [11],8 mm
same,zone of inhibition at 300 µg/mL,Staphylococcus aureus [12],14 mm
same,zone of inhibition at 50 µg/mL,Staphylococcus aureus [13],10 mm
same,zone of inhibition at 200 µg/mL,Staphylococcus aureus [14],13 mm
same,zone of inhibition at 200 µg/mL,Pseudomonas aeruginosa [15],10 mm
same,zone of inhibition at 300 µg/mL,Escherichia coli [16],12 mm
same,Activity,Pseudomonas aeruginosa [17],Dose-dependent effect
same,zone of inhibition at 200 µg/mL,Escherichia coli [18],11 mm
same,zone of inhibition at 300 µg/mL,Pseudomonas aeruginosa [19],11 mm
same,zone of inhibition at 50 µg/mL,Escherichia coli [20],8 mm
